Measured values: patent US20120213707A1, “Riboflavin Based Aerosol and Use as Placebo in Trials” (MPEX PHARMACEUTICALS, INC., priority 2009, published 2012)
Read-outs that look alike come from different tables or passages of the source.

Legend:
[1] = tested on: Sprague-Dawley rats; experiment: 28-day aerosolized liquid inhalation (nose-only) toxicity study in Sprague-Dawley rats; type: in vivo
Source text: (§1) The objective of the study was to determine the toxicity and toxicokinetic profile of the test article, riboflavin 5′-phosphate, following inhalation (nose-only) administration to rats for 28 consecutive days.
Test Article: riboflavin 5′-phosphate sodium salt hydrate; alternate identity: vitamin B2 phosphate; description: yellow crystals; potency: 74%. Vehicle article: saline (0.9% (w/v) NaCl for injection); description: clear colorless solution. Test system: rat (rattus norvegicus); strain: Sprague-Dawley Crl:CD (SD).
(§2) The test (0.5 mg/mL, 2.0 mg/mL, 5.0 mg/mL) and/or vehicle control formulations (0 mg/mL) for each group were prepared fresh daily on each day by dissolving the test article in saline. All prepared test article formulations were protected from light and kept at room temperature (RT).
(§3) Treatment: Daily inhalation by nose-only exposure for 60 minutes. Duration of treatment: 28 Days.
(§4) The aerosol was produced by metering the flow of the test article or vehicle formulations to 3 clinical nebulizers (Sidestream) connected to high velocity airstreams (10 L/min to each nebuliser). The aerosol produced was discharged through a 40 mm diameter tube into a flow-past inhalation exposure system. The airflow rate through the exposure system was monitored and recorded manually during the aerosol generation. Airflow to the exposure system was controlled by the absolute volume of air supplying the aerosol generators using variable area flow meters.
(§5) Assessments of mortality, clinical signs, body weights, food consumption, ophthalmology, functional observation battery and clinical chemistry, hematology, coagulation and urinalysis were performed. Plasma prepared from blood samples were collected from designated animals on the first and last days of the study and analyzed for Riboflavin 5′-phosphate content and toxicokinetic evaluation. All toxicology (main study) animals were euthanized upon completion of the 28-day treatment period and selected tissues were retained, weighed and examined microscopically. Toxicokinetic animals were euthanized following completion of blood sampling and were not subjected to necropsy examination or tissue collection. The following tables summarize tests, methods, and abbreviations used in hematology tests (Table 3), coagulation tests (Table 4), clinical chemistry tests (Table 5), and urinalysis (Table 6).

[2] = Aerosol particle size distribution, rat nose-only exposure system (7-Stage Mercer Cascade Impactor); type: physicochemical
Source text: as §4
Determinations of aerosol concentration, particle size distribution, oxygen concentration, relative humidity and temperature was performed on test atmosphere samples collected from a representative port of the exposure system, with a collection sample flow-rate of 1 L/min. The sample flow rates were precisely controlled using variable area flow meters that were calibrated using a primary airflow calibrator before use. The absolute volume of each aerosol concentration sample was measured using a wet type gas meter.
The distribution of particle size in the generated aerosols for Groups 2 to 4 was measured weekly during the treatment period by collecting samples into a 7-Stage Mercer Cascade Impactor and the sample substrates obtained were transferred to the analytical chemistry laboratory of ITR Laboratories Canada Inc. for the chemical determination of the particle size of the aerosolized Riboflavin 5′-phosphate using a validated analytical method (ITR Study No. 40241). The distribution of particle size in the generated aerosols for Group 1 was estimated once weekly by gravimetric determination. The mass median aerodynamic diameter (MMAD) and the Geometric Standard Deviation (GSD) were calculated based on the results obtained from the impactor using a log-probit transformation.

[3] = type: in vivo, rat (rattus norvegicus)
Description: as §1, §3, §5

[4] = Stability of dosing formulations in saline; type: physicochemical; settings: saline formulations 0.5-5.0 mg/mL, refrigerated at least 48 hours or room temperature on day of preparation
Description: as §2
Analyses determined that all formulations were within acceptance criteria ranges (±10%). The formulation concentrations ranged between 94.4 and 106.4% of nominal concentrations and therefore considered acceptable.
Analyses determined that all formulations were within acceptance criteria ranges (±10%). The formulation concentrations ranged between 94.9 and 104.5% of nominal concentrations and were therefore considered acceptable. […]

[5] = Group 2 Low Dose, 0.5 mg/mL formulation
[6] = Group 3 Mid Dose, 2.0 mg/mL formulation
[7] = Group 4 High Dose, 5.0 mg/mL formulation
[8] = female, Sprague-Dawley, rat, in vivo, 0.96 mg/kg/day
[9] = female, Sprague-Dawley, rat, in vivo, 2.4 mg/kg/day
[10] = male, Sprague-Dawley, rat, in vivo, 2.4 mg/kg/day
[11] = male, Sprague-Dawley, rat, in vivo, inhaled or intranasal, 0.96 mg/kg/day

Q: Which results are given for `Cc1cc2nc3c(=O)[nH]c(=O)nc-3n(C[C@H](O)[C@H](O)[C@H](O)COP(=O)(O)O)c2cc1C` [riboflavin 5′-phosphate]?
A: No Observed Effect Level (NOEL) ([1]; Sprague-Dawley rats, once daily inhaled, 28 consecutive days, high dose group): 2.479 mg/kg/day; clinical chemistry ([1]; rat, in vivo): no changes noted in any clinical chemistry parameters that were considered to be treatment-related; coagulation times ([1]; rat, in vivo): unaffected by treatment; functional observation battery ([1]; rat, in vivo): no changes noted in any functional observation battery parameters that were considered to be treatment-related; hematology ([1]; rat, in vivo): no changes noted in any haematology parameters that were considered to be treatment-related; macroscopic findings at necropsy ([1]; rat, in vivo): no findings attributed to the test article administration; microscopic findings ([1]; rat, in vivo): no microscopic findings that were considered to be test article related; urinalysis ([1]; rat, in vivo): no changes in any of the urinalysis parameters evaluated that were considered affected by treatment; adverse effects ([1]; rat, in vivo, 2.4 mg/kg/day): no adverse effects were observed; mortality ([1]; rats, 0.244 mg/kg/day, considered accidental (restraint), not test article related): One male rat dosed at 0.244 mg/kg/day was found dead on Day 12; local or systemic toxicity (histology of lymphoid and respiratory tract tissues) ([1]; rats, 28 days inhalation): no indications of local or systemic toxicity; tolerability ([1]; rats, nose-only inhalation, 28 consecutive days): well tolerated; % of particles <3.1 μm [2, 5]: 91.8%; MMAD [2, 5]: 1.2 μm; % of particles <3.1 μm [2, 6]: 91.9%; MMAD [2, 6]: 1.2 μm; % of particles <3.1 μm [2, 7]: 87.8%; MMAD [2, 7]: 1.2 μm; Cmax ratio (M/F) ([3]; both, Sprague-Dawley, rat, in vivo, 0.96 mg/kg/day): 1.59; AUC ratio (M/F) ([3]; both, Sprague-Dawley, rat, in vivo, 2.4 mg/kg/day): 1.24; AUC ratio (M/F) [3, 8]: 1.25; Cmax ratio (M/F) [3, 8]: 1.50; AUC ratio (M/F) [3, 9]: 0.672; Cmax ratio (M/F) [3, 9]: 1.17; riboflavin concentration in plasma ([3]; female, Sprague-Dawley, rat, in vivo, 24 h): 0.829 µg/mL; Tmax of riboflavin ([3]; female, Sprague-Dawley, rat, in vivo, inhaled or intranasal, 0.96 mg/kg/day): 0.00 h; Tmax of riboflavin ([3]; female, Sprague-Dawley, rat, in vivo, inhaled or intranasal, 2.4 mg/kg/day): 0.00 h; AUC ratio (M/F) [3, 10]: 0.433; Cmax ratio (M/F) [3, 10]: 0.801; AUC(0-T) of riboflavin [3, 11]: 15.9 ng·h/mL; Tmax of riboflavin [3, 11]: 0.00 h; Tmax of riboflavin ([3]; male, Sprague-Dawley, rat, in vivo, inhaled or intranasal, 2.4 mg/kg/day): 0.00 h; gender difference in riboflavin exposure ([3]; rat, in vivo): no gender difference in riboflavin exposure; riboflavin 5′-phosphate concentrations in plasma of treated animals ([3]; rat, in vivo): detected in only very few treated animals; riboflavin concentration values, males versus females ([3]; rats, Day 1): slightly higher in males than in females; formulation stability ([4]; dog study): stable; formulation stability ([4]; rat study): stable
